Laboratory results published in the supplement of paper PMC10883282.

How the values were obtained:
Assay in all cases: relative viability vs DMSO control (72 h) (fraction); higher = more viable cells
HS729 = tested on: HS729
Procedure, shortened: (§1)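 Densities for seeding sarcoma cell lines into 384-well plates were set to give 80–90% confluence. After 24 h, 2.5 µl of serially diluted compound from source plates of 10 mM to 0.0002 mM went in, and plates stayed 72 h at 37 °C in 5% CO2 with 0.1% DMSO vehicle and a 5 µM positive control. Percent growth from ATPLite readings, averaged over up to triplicate wells, served as relative viability, rescaled so 1 means full and 0 means none.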

KHOS-240S = tested on: KHOS-240S
Procedure, shortened: as §1

A204 = tested on: A204
Procedure, shortened: as §1

SYO-1 = tested on: SYO-1
Procedure, shortened: as §1

SW982 = tested on: SW982
Procedure, shortened: as §1

CCCS(=O)(=O)N[C@H]1C[C@@H](N(C)c2ncnc3[nH]ccc23)C1 [Abrocitinib]
relative viability
Conditions	A204	HS729	KHOS-240S	SW982	SYO-1
0.00017 µM	1.07	0.926	1.03	1.03	0.984
0.00051 µM	1.06	0.935	1.03	1.04	0.951
0.00152 µM	1.07	0.937	1.03	1.04	0.956
0.00457 µM	1.06	0.951	1.04	1.04	0.972
0.01372 µM	1.07	0.94	1.04	1.02	0.952
0.04115 µM	1.07	0.95	1.04	1.06	0.957
0.1235 µM	1.07	0.909	0.9912	1.07	0.974
0.3704 µM	1.07	0.91	1.02	1.044	0.959
1.111 µM	1.03	0.941	1.03	1.04	0.993
3.333 µM	1.01	0.8836	1.05	1.056	0.994
10 µM	0.949	0.892	0.988	1.06	1.01

COc1cc2c(Oc3ccc4[nH]c(C)cc4c3F)ccnc2cc1OCC1(N)CC1 [Anlotinib]
relative viability
Conditions	A204	HS729	KHOS-240S	SW982	SYO-1
0.00017 µM	1.08	0.944	1.06	1.034	0.921
0.00051 µM	1.08	0.908	1.049	1.04	0.923
0.00152 µM	1.05	0.951	1.04	1.01	0.92
0.00457 µM	1.05	0.917	1.06	1.05	0.884
0.01372 µM	1.05	0.935	1.05	1.06	0.856
0.04115 µM	0.997	0.909	1.04	1.06	0.817
0.1235 µM	0.829	0.911	1.03	1.05	0.679
0.3704 µM	0.475	0.795	0.993	0.997	0.529
1.111 µM	0.36	0.769	0.892	0.956	0.46
3.333 µM	0.18	0.678	0.464	0.544	0.328
10 µM	0.0656	0.383	0.122	0.206	0.115

CCN(CCCOc1ccc2c(Nc3cc(CC(=O)Nc4cccc(F)c4)[nH]n3)ncnc2c1)CCOP(=O)(O)O [Barasertib]
relative viability
Conditions	A204	HS729	KHOS-240S	SW982	SYO-1
0.00017 µM	1.05	0.957	1.04	1.06	0.939
0.00051 µM	1.05	0.934	1.02	1.03	0.918
0.00152 µM	1.05	0.947	1.03	1.05	0.891
0.00457 µM	1.04	0.936	1	1.05	0.82
0.01372 µM	0.9872	0.901	0.978	1	0.479
0.04115 µM	0.907	0.934	0.9	0.713	0.415
0.1235 µM	0.859	0.877	0.794	0.5551	0.397
0.3704 µM	0.813	0.801	0.759	0.552	0.337
1.111 µM	0.7	0.8	0.744	0.589	0.319
3.333 µM	0.441	0.815	0.736	0.525	0.284
10 µM	0.379	0.804	0.712	0.468	0.251

COc1cc(Nc2c(C#N)cnc3cc(OCCCN4CCN(C)CC4)c(OC)cc23)c(Cl)cc1Cl [Bosutinib]
relative viability
Conditions	A204	HS729	KHOS-240S	SW982	SYO-1
0.00017 µM	1.09	1.06	1.07	1.05	1.04
0.00051 µM	1.12	1.04	1.08	1.08	1.03
0.00152 µM	1.09	1.1	1.08	1.08	1.02
0.00457 µM	1.13	1.05	1.1	1.08	1.04
0.01372 µM	1.17	1.07	1.08	1.09	1.01
0.04115 µM	1.21	1.05	1.06	1.08	0.989
0.1235 µM	1.23	0.978	1.04	1.05	0.966
0.3704 µM	1.21	0.922	0.962	0.816	0.966
1.111 µM	1.111	0.773	0.734	0.511	0.868
3.333 µM	0.807	0.79	0.49	0.359	0.641
10 µM	0.259	0.107	0.0326	0.0126	-0.0056

COc1cc2nccc(Oc3ccc(NC(=O)C4(C(=O)Nc5ccc(F)cc5)CC4)cc3)c2cc1OC [Cabozantinib]
relative viability
Conditions	A204	HS729	KHOS-240S	SW982	SYO-1
0.00017 µM	1.04	1.1	1.11	1.04	1
0.00051 µM	1.1	0.966	1.08	1.01	1
0.00152 µM	1.06	0.973	1.08	1.03	0.974
0.00457 µM	1.06	0.928	1.06	1.035	0.91
0.01372 µM	0.9735	0.9662	1.06	1.036	0.915
0.04115 µM	0.785	0.897	1.07	1.07	0.751
0.1235 µM	0.428	0.83	1.02	1.05	0.708
0.3704 µM	0.378	0.749	1.04	1.03	0.627
1.111 µM	0.341	0.64	0.974	0.993	0.451
3.333 µM	0.312	0.504	0.6869	0.598	0.322
10 µM	0.229	0.288	0.425	0.259	0.129
